According to publication PMC12165799, “Antimicrobial peptide developed with machine learning sequence optimization targets drug resistant Staphylococcus aureus in mice” (The Journal of Clinical Investigation, 2025):

Experiments:
[1] = test system: S. aureus VRS1 (VRSA) exponential and persister cells; test: S. aureus persister cell and time-kill assays (VRS1); assay type: cell-based, Staphylococcus aureus; conditions: approximately 1 × 10^7 CFU
Experimental: 305 Minimal inhibitory concentration (MIC) assay
We made serial dilutions of 10×
We determined the MIC using OD600
Accordingly, we added 150 mM NaCl,
319 established protocol (5).
323 aureus VRS1) in PBS. To assess the killing kinetics of CIT-8 in persister cells, we added 1 ml of
324 cell suspension to the wells of a 2-ml deep-well assay block (Cat no. 3960, Corning, NY, USA)
We also included ciprofloxacin (at 10 μg/ml) for S.
326 aureus MW2 and linezolid (100 μg/ml) for S. aureus VRS1 as antibiotic controls. Additionally,
327 we included bithionol (at 10 μg/ml) as a positive control, known for its ability to kill stationary
328 phase persister cells (6). We incubated the plates at 37°C, with shaking at 225 rpm. At specific
329 times (0, 15, 30, 60, and 120 min), we collected 10 μl samples, diluted them serially, and then
330 plated them on tryptic soy agar (TSA) (BD Difco, NJ, USA) plates. We incubated the TSA plates
331 for 18 hours at 37°C for colony counting. We performed these experiments in duplicate. As a
332 comparison, we prepared the exponential cells of S. aureus MW2 and VRS1 in PBS and analyzed
333 their killing kinetics in the same manner as described for persister cells.

[2] = test system: MRSA (S. aureus MW2) biofilm; test: Biofilm viability assay on solid support (MW2); assay type: cell-based, Staphylococcus aureus; conditions: 40 μg/mL, 24 h established biofilm
[3] = test system: VRSA (S. aureus VRS1) biofilm; test: Biofilm viability assay on solid support (VRS1); assay type: cell-based, Staphylococcus aureus; conditions: 40 μg/mL, 24 h established biofilm
[4] = test system: S. aureus MW2 biofilm formation; conditions: crystal violet, 24 h
Experimental: 349 Prevention of S. aureus MW2 biofilm formation
350 We evaluated the ability of the citropin 1.1-derived peptides to inhibit biofilm formation
351 following an established protocol with modifications (5). In short, we prepared exponential
352 cultures of S. aureus MW2 (adjusted to OD600 = 0.01) in TSB medium (supplemented with 0.2%
353 glucose) from overnight cultures. We added 90 µl of the bacterial culture to 10 µl of serially diluted
354 10× peptide solution in flat-bottomed 96-well polystyrene microtiter plates (Cat no. Corning 3595,
(§1) We used TSB medium containing
(§2) 356 bacteria with water as the positive control, while TSB media with sterile water served as the
(§3) 357 negative control. After incubation, we carefully removed the TSB medium and washed the wells
(§4) 358 with PBS (Gibco, MD, USA) to remove loosely attached planktonic cells. We quantified the
(§5) 359 biomass by staining the biofilms with crystal violet following an established protocol and
(§6) 360 quantitated the concentration of peptide that inhibits 50% of biofilm formation (MBIC50)(8). We
(§7) 361 measured the live cell count of the biofilms using XTT dye [2,3-bis(2-methyloxy-4-nitro-5-
362 sulfophenyl)-2H-tertazolium-5-carboxanilide] (ATCC, VA, USA).

[5] = test system: S. aureus MW2 24 h established biofilm; conditions: crystal violet, 24 h established biofilm, 24 h treatment
Experimental: 346 plated onto TSA plates, and incubated plates at 37°C overnight. The next day, we counted the
347 viable bacterial colonies.
as §1, §2, §3, §4, §5, §6, §7
362 sulfophenyl)-2H-tertazolium-5-carboxanilide] (ATCC, VA, USA). We calculated the percentage
363 of biofilm growth by normalizing to biofilm growth in wells containing bacteria without peptide
366 Disruption of S. aureus MW2 established biofilms
367 We evaluated the ability of the citropin 1.1-derived peptides to disrupt established biofilms
368 following an established protocol with modifications (5). We prepared exponential cultures of S.
369 aureus MW2 (adjusted to 1 × 10^6 CFU/ml) in TSB medium (supplemented with 0.2% glucose)
370 from overnight grown cultures. We added 100 µl of bacterial culture to flat-bottomed 96-well
371 polystyrene microtiter plates (Cat no. 3595, Corning, NY, USA). We then incubated the plates at
372 37°C for 24 hours in static conditions to allow biofilm formation. After incubation, we carefully
373 pipetted out the TSB medium and washed the wells with PBS (Gibco, MD, USA) to remove
374 loosely attached planktonic cells. We treated the established biofilms in each well with 10 µl of
375 serially diluted 10× peptide solution, followed by the addition of 90 μl TSB medium
376 (supplemented with 0.2% glucose). We incubated the plates for another 24 h at 37°C before
377 processing biomass and live-cell contents. We calculated the concentration of peptide that disrupts
378 50% of established biofilms (MBEC50).

S. aureus MW2 membrane = test: Propidium iodide-based membrane permeability; assay type: cell-based, Staphylococcus aureus; conditions: S. aureus MW2, 60 minutes
Experimental: 484 min at room temperature in the dark based on a previously established protocol (8). We added 90
485 µl of the dye/bacteria mixture to 10 μl of serially diluted 10× peptide concentration in black, 96-
486 well plates (Cat. no. 3904, Corning, NY, USA) and incubated the plates for 1 hour at room
487 temperature. We measured the fluorescence with excitation and emission wavelengths of 485 nm
488 and 525 nm, respectively in endpoint assay mode using a SpectraMax i3x (Molecular Devices,
489 CA, USA) fluorescence reader.
490 Propidium iodide-based membrane permeability
491 We used a propidium iodide (Thermo Fisher Scientific, MA, USA) fluorescence-based
492 bacterial permeation assay to establish membrane-oriented interactions with the designed peptides
493 based on a previously established protocol (8). We prepared exponential phase S. aureus MW2
494 bacteria and diluted to OD600 = 0.4 in PBS. We added PI dye (final concentration = 2 µM) to the
495 bacteria in 1:10 serial dilutions in black, 96-well plates (Cat. no. 3904, Corning, NY, USA) and
496 incubated the plates for 1 hour at room temperature. We then measured the fluorescence with an
497 excitation wavelength of 584 nm and an emission wavelength of 620 nm in endpoint assay mode
498 using a SpectraMax i3x (Molecular Devices, CA, USA) fluorescence reader.
501 To determine the ATP leakage potential of the peptides, we employed a luciferase-based
502 assay(18). In brief, we washed exponential phase of S. aureus MW2 bacteria three times with PBS
503 (pH 7.4) and adjusted the washed cells to OD600 = 0.4 in PBS. Following treatment of the bacteria
504 with 32 µg/ml of CIT-8 peptide at 37°C for 30 min, we centrifuged the cells at 14,000× g for 5
505 min. We transferred 50 µl of each supernatant fraction to black, clear-bottom, 96-well plates

S. aureus JE2 = test system: S. aureus JE2; design: method as in PMID 31336137; conditions: S. aureus JE2 (USA300 isolate); cited from earlier work
Source text: In MRSA, antimicrobial resistance is linked to life-threatening infections, such as pneumonia, sepsis, and endocarditis ([48]). The situation is further complicated by the presence of S. aureus bacteria in alternative physiological states such as biofilms and persister cells, which are often neglected in early antimicrobial drug discovery stages even though they contribute substantially to chronic, relapsing infections ([49]).

CC[C@H](C)[C@H](NC(=O)CN)C(=O)NCC(=O)N[C@@H](C)C(=O)N[C@H](C(=O)N[C@@H](CC(C)C)C(=O)N[C@@H](CCCCN)C(=O)N[C@H](C(=O)N[C@@H](CC(C)C)C(=O)N[C@H](C(=O)N[C@H](C(=O)NCC(=O)N[C@@H](CC(C)C)C(=O)N1CCC[C@H]1C(=O)N[C@@H](C)C(=O)N[C@@H](CC(C)C)C(=O)N[C@H](C(=O)N[C@@H](CO)C(=O)N[C@@H](Cc1c[nH]c2ccccc12)C(=O)N[C@H](C(=O)N[C@@H](CCCCN)C(=O)N[C@@H](CCCNC(=N)N)C(=O)N[C@@H](CCCCN)C(=O)N[C@@H](CCCNC(=N)N)C(=O)N[C@@H](CCC(N)=O)C(=O)N[C@@H](CCC(N)=O)C(N)=O)[C@@H](C)CC)[C@@H](C)CC)[C@@H](C)O)[C@@H](C)O)C(C)C)C(C)C [melittin, reference compound]
Time to elimination of exponential and persister cells of VRSA [1]: ≤ 120 min
Reduction of MRSA biofilm burden on solid membrane [2]: 1.85 logs
Reduction of VRSA biofilm burden on solid membrane [3]: 3.9 logs
MBIC50 (biomass reduced by 50%) [4]: 4.8 µg/mL
MBEC50 (50% of biomass disrupted) [5]: 2.3 µg/mL
Propidium iodide fluorescence (membrane permeation) (S. aureus MW2 membrane): elevated fluorescence levels

citropin 1.1
MIC (S. aureus JE2): 32 µg/mL
